Source: patent US9549922B2, “Use of eribulin and lenvatinib as combination therapy for treatment of cancer” (priority 2013, dated 2017)
Entries after “also recorded” stand apart in the source; their conditions may differ.

Legend:
[1] = system: A375 human malignant melanoma xenografts; experiment: Antitumor activity in A375 human malignant melanoma xenograft model (tumor volume); format: in vivo; details: single agent at highest dose: E7389 3.0 mg/kg i.v. Q7Dx2; E7080 15 mg/kg p.o. Q1Dx14; female athymic mice
Excerpt: Following randomization, drug treatment was initiated.
A value of P<0.05 was considered statistically significant.

[2] = system: PC-9 human non-small cell lung cancer xenografts; experiment: Antitumor activity in PC-9 human non-small cell lung cancer xenografts (tumor volume); format: in vivo, mice; details: single treatment: E7389 1.5 mg/kg i.v. Q7Dx2; E7080 10 mg/kg p.o. Q1Dx12
Experimental: (§1) Human non-small cell lung cancer cell lines, NCI-H1993 and PC-9, were maintained in monolayer cultures in RPMI-1640 medium supplemented with 10% Fetal Bovine Serum and 1% of Penicillin-Streptomycin-Amphotericin at 37° C. in a 5% CO2 humidified incubator. On the day of inoculation, cells were harvested by Trypsinization, washed, and mixed 1:1 (v/v) with medium/GelTrex. NCI-H1993 and PC-9 human non-small cell lung cancer cells (10×10^6 cells per animal) were inoculated subcutaneously near the right axillary area using a 26-gauge needle in a 0.1 mL volume in female immuncompromised mice (Mouse: BALB/c Slc nu/nu; Japan SLC, Inc.).
(§2) The experiment consisted of a no inject control group, a single agent drug-treated group for either E7389 (1.5 mg/kg) or E7080 (10 mg/kg), and combination drug-treated groups. Each group was composed of five mice. […] Following randomization, drug treatment was initiated. E7389 (1.5 mg/kg) was intravenously administered weekly for two weeks (Q7Dx2). E7080 was orally administered daily for 12 days (Q1Dx12). Both drugs were administered at a volume of 0.1 mL per 10 g body weight.
(§3) Tumor volume was determined by caliper measurements (mm) using the formula Tumor volume (mm^3)=length (mm)×width^2(mm^2)×½
(§4) The mean±SD for tumor volume for each experimental group was calculated. […]

[3] = in vivo; details: athymic, mouse
[4] = system: NCI-H1993 human non-small cell lung cancer xenografts; experiment: Antitumor activity in NCI-H1993 human non-small cell lung cancer xenografts (tumor volume); format: in vivo, mice; details: single treatment: E7389 1.5 mg/kg i.v. Q7Dx2; E7080 10 mg/kg p.o. Q1Dx12
Experimental: as §1, §2, §3, §4

[5] = Relative body weight change in A375 xenograft study; format: in vivo, mice; details: E7389 alone at 3.0 mg/kg i.v. Q7Dx2
Experimental: The experiment consisted of a vehicle-treated control group, a single agent drug-treated group for either E7389 or E7080, and three combination drug-treated groups (summarized in Table 1). Each group was composed of six mice for a total of 48 mice on the first day of treatment. […] Following randomization, drug treatment was initiated. E7080 was orally administered daily for 14 days (Q1Dx14) at a volume of 0.1 mL per 10 g body weight. E7389 (0.05 mg/kg) was intravenously administered daily for 14 days. In the combination group, E7389 was administered three hours after oral administration of E7080. […]
The general health of the mice was monitored daily. Tumor volume was determined by caliper measurements (mm) using the formula (1×w^2)/2=mm^3, where 1 and w refer to the larger and smaller perpendicular dimensions collected at each measurement. Tumor dimensions and body weight were recorded twice per week starting the first day of treatment. Relative body weight was calculated as follows: Relative body weight=(body weight on day of measurement)/(body weight on first day of treatment).
The data generated consisted of group mean body weights at each measurement and group mean tumor volumes at each measurement. The mean±SEM for tumor volume and relative body weight for each experimental group was calculated.

| SMILES | antitumor effect (tumor volume) [1] | antitumor activity (tumor volume) [2] | MTD at 14 days ([3]; other: E7389 i.v., E7080 p.o.) | antitumor activity (tumor volume) [4] | relative body weight change [5] | MTD at 14 days [3] |
| --- | --- | --- | --- | --- | --- | --- |
| C=C1C[C@@H]2CC[C@@]34C[C@H]5O[C@@H]6[C@@H](O3)[C@H]3O[C@H](CC[C@@H]3O[C@H]6[C@H]5O4)CC(=O)C[C@@H]3[C@@H](OC)[C@@H](C[C@H](O)CN)O[C@H]3C[C@H]3O[C@@H](CC[C@@H]1O2)C[C@@H](C)C3=C.CS(=O)(=O)O [E7389, (2R,3R,3aS,7R,8aS,9S,I0aR,11S,12R,13aR,13bS,15S,18S,21S,24S,26R,28R,29aS)-2-[(2S)-3-amino-2-hydroxypropyl]hexacosahydro-3-methoxy-26-methyl-20,27-bis(methylene)-11,15:18,21:24,28-triepoxy-7,9-ethano-12,15-methano-9H,15H-furo[3,2-i]furo[2′,3′:5,6]pyrano[4,3-b][1,4]dioxacyclopentacosin-5(4H)-one, methanesulfonate (salt)] | tumor growth delay, but not tumor regression; also recorded: strong antitumor activity | significant antitumor activity | 3 mg/kg | significant antitumor activity | Body weight loss was observed | – |
| COc1cc2nccc(Oc3ccc(NC(=O)NC4CC4)c(Cl)c3)c2cc1C(N)=O.CS(=O)(=O)O [E7080, 4-[3-chloro-4-[[(cyclopropylamino)carbonyl]amino]phenoxy]-7-methoxy-6-quinolinecarboxamide, methanesulfonate (1:1)] | tumor growth delay, but not tumor regression | significant antitumor activity | – | significant antitumor activity | – | 15 mg/kg |
